# Laboratory results published in US9650379B2 (CHONG KUN DANG PHARMACEUTICAL CORP., priority 2013, dated 2017).
# How the values were obtained:
# [1] = biological target: T1, HDAC6 human recombinant (Homo sapiens, UniProt Q9UBN7); experiment: Inhibition of HDAC6 activity (fluorimetric assay); assay type: biochemical; settings: test concentrations 0.1, 1, 10, 100 and 1000 nM; 37° C., 60 minutes
# T1 construct: purchased Calbiochem 382180
# T1 sequence (Q9UBN7 1-1215): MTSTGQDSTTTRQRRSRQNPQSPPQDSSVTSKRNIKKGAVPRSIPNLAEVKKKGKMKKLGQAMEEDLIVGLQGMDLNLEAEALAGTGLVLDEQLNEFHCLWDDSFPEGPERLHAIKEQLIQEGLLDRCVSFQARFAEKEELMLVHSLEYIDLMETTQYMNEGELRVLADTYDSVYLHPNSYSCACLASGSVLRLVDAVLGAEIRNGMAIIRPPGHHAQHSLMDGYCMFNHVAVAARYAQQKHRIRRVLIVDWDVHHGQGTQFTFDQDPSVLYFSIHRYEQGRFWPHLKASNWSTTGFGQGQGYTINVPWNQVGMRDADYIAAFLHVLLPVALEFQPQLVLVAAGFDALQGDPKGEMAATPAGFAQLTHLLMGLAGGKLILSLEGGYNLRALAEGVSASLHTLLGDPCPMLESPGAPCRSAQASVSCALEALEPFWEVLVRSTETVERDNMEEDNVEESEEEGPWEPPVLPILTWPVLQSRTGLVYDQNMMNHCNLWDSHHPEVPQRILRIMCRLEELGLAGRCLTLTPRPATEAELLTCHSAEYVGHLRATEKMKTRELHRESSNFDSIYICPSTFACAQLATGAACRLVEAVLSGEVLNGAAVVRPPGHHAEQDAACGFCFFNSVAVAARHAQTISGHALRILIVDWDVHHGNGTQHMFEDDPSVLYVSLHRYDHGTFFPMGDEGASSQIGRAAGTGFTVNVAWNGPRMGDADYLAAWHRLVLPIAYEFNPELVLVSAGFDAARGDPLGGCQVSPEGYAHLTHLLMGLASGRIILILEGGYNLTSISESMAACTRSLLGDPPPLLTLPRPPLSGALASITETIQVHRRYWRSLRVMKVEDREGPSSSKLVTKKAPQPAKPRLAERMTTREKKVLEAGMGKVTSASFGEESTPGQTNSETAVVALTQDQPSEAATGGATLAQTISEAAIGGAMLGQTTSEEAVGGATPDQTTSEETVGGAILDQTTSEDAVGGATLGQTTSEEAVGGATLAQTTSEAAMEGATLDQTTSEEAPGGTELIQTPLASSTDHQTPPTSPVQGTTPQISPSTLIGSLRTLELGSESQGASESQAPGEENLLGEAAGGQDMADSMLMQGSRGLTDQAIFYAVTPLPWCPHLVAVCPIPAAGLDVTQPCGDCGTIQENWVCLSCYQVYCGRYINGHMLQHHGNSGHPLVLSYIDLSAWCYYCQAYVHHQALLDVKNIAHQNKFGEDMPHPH
# Description: (§1) Assays were performed using a HDAC1 fluorimetric drug discovery assay kit (Enzolifesciences: BML-AK511) and a HDAC6 human recombinant (Calbiochem: 382180). The assay mixture of the kit was treated with a test compound at concentrations of 100, 1000 and 10000 nM for HDAC1 assay and concentrations of 0.1, 1, 10, 100 and 1000 nM for HDAC6 assay. The treated assay mixture was allowed to react at 37° C. for 60 minutes, and then was treated with a developer and allowed to stand at 37° C. for 30 minutes, followed by quantification of the fluorescence.
# [2] = biological target: T2, HDAC1 (Homo sapiens, UniProt Q13547); experiment: Inhibition of HDAC1 activity (HDAC1 fluorimetric drug discovery assay kit); assay type: biochemical; settings: test concentrations 100, 1000 and 10000 nM; 37° C., 60 minutes
# T2 construct: purchased Enzolifesciences BML-AK511
# Description: as §1
# T2 sequence (Q13547 whole entry): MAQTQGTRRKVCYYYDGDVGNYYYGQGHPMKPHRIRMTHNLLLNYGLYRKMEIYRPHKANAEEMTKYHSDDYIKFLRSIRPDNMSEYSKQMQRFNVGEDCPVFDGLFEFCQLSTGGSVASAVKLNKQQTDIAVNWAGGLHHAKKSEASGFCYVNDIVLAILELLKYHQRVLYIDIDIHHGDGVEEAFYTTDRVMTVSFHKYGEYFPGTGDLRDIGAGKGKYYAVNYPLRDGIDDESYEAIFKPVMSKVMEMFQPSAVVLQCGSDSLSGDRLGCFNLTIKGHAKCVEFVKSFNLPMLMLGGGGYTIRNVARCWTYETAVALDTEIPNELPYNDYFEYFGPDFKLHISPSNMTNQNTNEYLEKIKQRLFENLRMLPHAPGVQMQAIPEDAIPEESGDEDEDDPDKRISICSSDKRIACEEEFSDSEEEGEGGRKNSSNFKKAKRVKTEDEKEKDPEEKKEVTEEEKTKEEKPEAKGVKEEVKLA
SMILES,IC50 [1] [nM],IC50 [2] [nM]
"O=C(NO)c1ccc(Cn2ccc3cc(-c4cncnc4)cnc32)cc1 [Compound 124, N-hydroxy-4-((5-(pyrimidin-5-yl)-1H-pyrrolo[2,3-b]pyridin-1-yl)methyl)benzamide]",120,540
"O=C(NO)c1ccc(Cn2ccc3cc(-c4ccc(F)cc4F)cnc32)cc1 [Compound 125, 4-((5-(2,4-difluorophenyl)-1H-pyrrolo[2,3-b]pyridin-1-yl)methyl)-N-hydroxybenzamide]",52,1610
CC(C)(C)OC(=O)N1CCN(c2ccnc3c2ccn3Cc2ccc(C(=O)NO)cc2)CC1 [Compound 212],14,890
"CC(C)(F)CN1CCC(c2cnc3c(ccn3Cc3ccc(C(=O)NO)cc3)c2)CC1 [Compound 618, 4-((5-(1-(2-fluoro-2-methylpropyl)piperidin-4-yl)-1H-pyrrolo[2,3-b]pyridin-1-yl)methyl)-N-hydroxybenzamide]",16,1300
"O=C(NO)c1ccc(Cn2ccc3cc(C4CCOCC4)cnc32)cc1 [Compound 635, N-hydroxy-4-((5-(tetrahydro-2H-pyran-4-yl)-1H-pyrrolo[2,3-b]pyridin-1-yl)methyl)benzamide]",11,1170
"O=C(NO)c1ccc(Cn2ccc3cc(-c4ccccc4)cnc32)cc1 [Compound 645, N-hydroxy-4-((5-phenyl-1H-pyrrolo[2,3-b]pyridin-1-yl)methyl)benzamide]",17,3050
"CN1CC=C(c2cnc3c(ccn3Cc3ccc(C(=O)NO)cc3)c2)CC1 [Compound 647, N-hydroxy-4-((5-(1-methyl-1,2,3,6-tetrahydropyridin-4-yl)-1H-pyrrolo[2,3-b]pyridin-1-yl)methyl)benzamide]",15,1170
"O=C(NO)c1ccc(Cn2ccc3cc(C4=CCCCC4)cnc32)cc1 [Compound 648, 4-((5-(cyclohex-1-en-1-yl)-1H-pyrrolo[2,3-b]pyridin-1-yl)methyl)-N-hydroxybenzamide]",18,3550
CC1(C)CC=C(c2cnc3c(ccn3Cc3ccc(C(=O)NO)cc3)c2)CC1 [Compound 649],93,7050
"O=C(NO)c1ccc(Cn2ccc3cc(C4=CCC(F)(F)CC4)cnc32)cc1 [Compound 650, 4-((5-(4,4-difluorocyclohex-1-en-1-yl)-1H-pyrrolo[2,3-b]pyridin-1-yl)methyl)-N-hydroxybenzamide]",14,2300
"O=C(NO)c1ccc(Cn2ccc3c(-c4ccccc4)ccnc32)cc1 [Compound 656, N-hydroxy-4-((4-phenyl-1H-pyrrolo[2,3-b]pyridin-1-yl)methyl)benzamide]",16,1350
"O=C(NO)c1ccc(Cn2ccc3c(-c4ccc(F)cc4F)ccnc32)cc1 [Compound 658, 4-((4-(2,4-difluorophenyl)-1H-pyrrolo[2,3-b]pyridin-1-yl)methyl)-N-hydroxybenzamide]",21,1950
"CC(C)(O)CN1CC=C(c2cnc3c(ccn3Cc3ccc(C(=O)NO)cc3)c2)CC1 [Compound 686, N-hydroxy-4-((5-(1-(2-hydroxy-2-methylpropyl)-1,2,3,6-tetrahydropyridin-4-yl)-1H-pyrrolo[2,3-b]pyridin-1-yl)methyl)benzamide]",39,2740
"O=C(NO)c1ccc(Cn2ccc3cc(-c4cnc(O)nc4)cnc32)cc1 [Compound 687, N-hydroxy-4-((5-(2-hydroxypyrimidin-5-yl)-1H-pyrrolo[2,3-b]pyridin-1-yl)methyl)benzamide]",61,3230
"O=C(NO)c1ccc(Cn2ccc3cc(-c4ccc5cccnc5c4)cnc32)cc1 [Compound 688, N-hydroxy-4-((5-(quinolin-7-yl)-1H-pyrrolo[2,3-b]pyridin-1-yl)methyl)benzamide]",22,4610
"COc1ccc(-c2cnc3c(ccn3Cc3ccc(C(=O)NO)cc3)c2)cc1 [Compound 689, N-hydroxy-4-((5-(4-methoxyphenyl)-1H-pyrrolo[2,3-b]pyridin-1-yl)methyl)benzamide]",83,3170
"COc1ccc(CN2CCC(c3cnc4c(ccn4Cc4ccc(C(=O)NO)cc4)c3)CC2)cn1 [Compound 1098, N-hydroxy-4-((5-(1-((6-methoxypyridin-3-yl)methyl)piperidin-4-yl)-1H-pyrrolo[2,3-b]pyridin-1-yl)methyl)benzamide]",5230,

# Compounds with a lower IC50 [1], results first:
IC50 [1] [nM],IC50 [2] [nM],SMILES
9,4220,"CC(C)(F)CN1CC=C(c2cnc3c(ccn3Cc3ccc(C(=O)NO)cc3)c2)CC1 [Compound 617, 4-((5-(1-(2-fluoro-2-methylpropyl)-1,2,3,6-tetrahydropyridin-4-yl)-1H-pyrrolo[2,3-b]pyridin-1-yl)methyl)-N-hydroxybenzamide]"
9,470,"O=C(NO)c1ccc(Cn2ccc3c(-c4ccncc4)ccnc32)cc1 [Compound 657, N-hydroxy-4-((4-(pyridin-4-yl)-1H-pyrrolo[2,3-b]pyridin-1-yl)methyl)benzamide]"
8,1090,"CC(C)(F)CN1CC=C(c2ccnc3c2ccn3Cc2ccc(C(=O)NO)cc2)CC1 [Compound 630, 4-((4-(1-(2-fluoro-2-methylpropyl)-1,2,3,6-tetrahydropyridin-4-yl)-1H-pyrrolo[2,3-b]pyridin-1-yl)methyl)-N-hydroxybenzamide]"
7,380,"CCN1CCN(c2ccnc3c2ccn3Cc2ccc(C(=O)NO)cc2)CC1 [Compound 223, 4-((4-(4-ethylpiperazin-1-yl)-1H-pyrrolo[2,3-b]pyridin-1-yl)methyl)-N-hydroxybenzamide]"
6,790,"Cn1ncc2ccc(-c3cnc4c(ccn4Cc4ccc(C(=O)NO)cc4)c3)cc21 [Compound 685, N-hydroxy-4-((5-(1-methyl-1H-indazol-6-yl)-1H-pyrrolo[2,3-b]pyridin-1-yl)methyl)benzamide]"
4,1050,"O=C(NO)c1ccc(Cn2ccc3cc(C4=CCOCC4)cnc32)cc1 [Compound 629, 4-((5-(3,6-dihydro-2H-pyran-4-yl)-1H-pyrrolo[2,3-b]pyridin-1-yl)methyl)-N-hydroxybenzamide]"
4,900,"O=C(NO)c1ccc(Cn2ccc3c(-c4cncnc4)ccnc32)cc1 [Compound 659, N-hydroxy-4-((4-(pyrimidin-5-yl)-1H-pyrrolo[2,3-b]pyridin-1-yl)methyl)benzamide]"
3,410,"CC(C)N1CCN(c2ccnc3c2ccn3Cc2ccc(C(=O)NO)cc2)CC1 [Compound 225, N-hydroxy-4-((4-(4-isopropylpiperazin-1-yl)-1H-pyrrolo[2,3-b]pyridin-1-yl)methyl)benzamide]"
2,180,"CN1CCN(c2ccnc3c2ccn3Cc2ccc(C(=O)NO)cc2)CC1 [Compound 224, N-hydroxy-4-((4-(4-methylpiperazin-1-yl)-1H-pyrrolo[2,3-b]pyridin-1-yl)methyl)benzamide]"
1.8,,"COc1ccc(CN2CC3(CCN(c4cnc5c(ccn5Cc5ccc(C(=O)NO)cc5)c4)CC3)C2)cc1 [Compound 1125, N-hydroxy-4-((5-(2-(4-methoxybenzyl)-2,7-diazaspiro[3.5]nonan-7-yl)-1H-pyrrolo[2,3-b]pyridin-1-yl)methyl)benzamide]"
0.7,1670,"O=C(NO)c1ccc(Cn2ccc3cc(-c4ccc(F)cc4)cnc32)cc1 [Compound 104, 4-((5-(4-fluorophenyl)-1H-pyrrolo[2,3-b]pyridin-1-yl)methyl)-N-hydroxybenzamide]"
0.26,382,O=C(NO)c1ccc(Cn2ccc3cc(-c4cccnc4)cnc32)cc1 [Compound 103]
